This experiment has as its target T1, human GPR119 (Homo sapiens, UniProt Q8TDV5).
T1 construct: expressed in transfected cells; host or cells: HEK293
T1 sequence (Q8TDV5 1-335): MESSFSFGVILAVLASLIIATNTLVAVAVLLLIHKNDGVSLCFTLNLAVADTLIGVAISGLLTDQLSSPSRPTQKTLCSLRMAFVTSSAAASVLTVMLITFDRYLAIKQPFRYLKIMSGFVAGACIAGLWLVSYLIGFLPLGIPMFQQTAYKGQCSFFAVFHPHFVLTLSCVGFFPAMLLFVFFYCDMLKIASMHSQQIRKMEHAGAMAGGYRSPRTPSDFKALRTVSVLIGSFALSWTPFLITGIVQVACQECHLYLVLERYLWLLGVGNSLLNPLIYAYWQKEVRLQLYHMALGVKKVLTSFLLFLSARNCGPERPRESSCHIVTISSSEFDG
The experiment can be described thus: Measurement of GPR119 signaling using LANCE 384-well cAMP kit (LCMP assay). Type of experiment: cell-based. Particulars: HEK293 cells stably transfected with human GPR119. As to the method:
Measurement of GPR119 Signaling Using LANCE 384-Well cAMP Kit (LCMP Assay)
Human embryonic kidney (HEK) 293 cell lines stably transfected with human GPR119 were maintained in DMEM media containing FBS, penicillin-streptomycin, HEPES, and hygromycin. For the cAMP assay, the transfected cells were harvested using a non-enzymatic cell dissociation solution (GIBCO 2672), pelleted and resuspended in stimulation buffer (DMEM, 25 mM Hepes, 0.1% BSA, pH 7.4 in the presence of 100 μM phosphodiesterase inhibitors). The adenylate cyclase assay was constructed following the LANCE™ cAMP Kit (Perkin Elmer, AD0264) instructions. Briefly, cells with Alexa Fluor® 647-anti cAMP antibody were incubated with 10 point series diluted test article in stimulation buffer with a final concentration of 2.5% DMSO for 45 minutes. The reaction was stopped by incubating with the supplied detection buffer containing the europium chelate of the Eu-SA/Biotin-cAMP tracer for 3 hours. The assay was performed in duplicate in a 384 well plate for duplicate plates. Fluorescence at 665 nm was measured using a PHERAstar instrument. Basal activity was determined using a DMSO control and maximum response was defined as cAMP stimulation produced by an internal agonist control. Standard cAMP concentrations were assayed concurrently for conversion of fluorescence signal to cAMP level. The data was analyzed using 4-parameter curve fit in Microsoft Excel.
With `CC1(OC(=O)N2CCC([C@@H]3C[C@H]3CCOc3ccc(S(C)(=O)=O)c(F)c3)CC2)CC1` [Example 94, 1-methylcyclopropyl 4-((1S,2S)-2-(2-(3-fluoro-4-(methylsulfonyl)phenoxy)ethyl)cyclopropyl)piperidine-1-carboxylate], a half-maximal effect (EC50) was put at 23 nM. Then `CCS(=O)(=O)c1ccc(COC[C@H]2C[C@@H]2C2CCN(c3ncc(COC)cn3)CC2)cc1` [Example 13, 2-(4-((1R,2S)-2-(((4-(ethylsulfonyl)benzyl)oxy)methyl)cyclopropyl)piperidin-1-yl)-5-(methoxymethyl)pyrimidine], with 24 nM; and `CC1(OC(=O)N2CCC([C@H]3C[C@@H]3CCOc3ccc(CC(=O)N4CCC4)cc3F)CC2)CC1` [Example 98, 1-methylcyclopropyl 4-((1R,2R)-2-(2-(4-(2-(azetidin-1-yl)-2-oxoethyl)-2-fluorophenoxy)ethyl)cyclopropyl)piperidine-1-carboxylate], with 6.3 nM; and `CC(C)c1noc(N2CCC([C@H]3C[C@@H]3CCOc3ccc(S(C)(=O)=O)cc3F)CC2)n1` [Example 85, 5-(4-((1R,2R)-2-(2-(2-fluoro-4-(methylsulfonyl)phenoxy)ethyl)cyclopropyl)piperidin-1-yl)-3-isopropyl-1,2,4-oxadiazole], with 17 nM. To `CS(=O)(=O)c1ccc(OCC[C@@H]2C[C@H]2C2CCN(c3ncc(Cl)cn3)CC2)c(F)c1` [Example 29, 5-chloro-2-(4-((1S,2S)-2-(2-(2-fluoro-4-(methylsulfonyl)phenoxy)ethyl)cyclopropyl)piperidin-1-yl)pyrimidine] belongs 17 nM; to `COCc1noc(N2CCC([C@H]3C[C@@H]3CCOc3cc(F)c(CC(=O)N4CCC4)c(F)c3)CC2)n1` [Example 80, 1-(azetidin-1-yl)-2-(2,6-difluoro-4-(2-((1R,2R)-2-(1-(3-(methoxymethyl)-1,2,4-oxadiazol-5-yl)piperidin-4-yl)cyclopropyl)ethoxy)phenyl)ethanone], 2.4 nM; to `COCc1noc(N2CCC([C@H]3C[C@@H]3CCOc3ccc(CC(=O)N4CCC4)c(F)c3)CC2)n1` [Example 73, 1-(azetidin-1-yl)-2-(2-fluoro-4-(2-((1R,2R)-2-(1-(3-(methoxymethyl)-1,2,4-oxadiazol-5-yl)piperidin-4-yl)cyclopropyl)ethoxy)phenyl)ethanone], 6.4 nM. The compound `CC(C)c1noc(N2CCC([C@@H]3C[C@H]3CCOc3ccc(S(C)(=O)=O)c(F)c3)CC2)n1` [Example 65, 5-(4-((1S,2S)-2-(2-(3-fluoro-4-(methylsulfonyl)phenoxy)ethyl)cyclopropyl)piperidin-1-yl)-3-isopropyl-1,2,4-oxadiazole] showed an EC50 of 7.7 nM. Then `CC1(OC(=O)N2CCC([C@@H]3C[C@H]3CCOc3ccc(CC(=O)N4CCC4)c(F)c3)CC2)CC1` [Example 97, 1-methylcyclopropyl 4-((1S,2S)-2-(2-(4-(2-(azetidin-1-yl)-2-oxoethyl)-3-fluorophenoxy)ethyl)cyclopropyl)piperidine-1-carboxylate], with 4.2 nM. Then `CC(C)c1noc(N2CCC([C@@H]3C[C@H]3CCOc3ccc(S(C)(=O)=O)cc3F)CC2)n1` [Example 66, 5-(4-((1S,2S)-2-(2-(2-fluoro-4-(methylsulfonyl)phenoxy)ethyl)cyclopropyl)piperidin-1-yl)-3-isopropyl-1,2,4-oxadiazole], with 3.5 nM; and `CCc1cnc(N2CCC([C@@H]3C[C@H]3CCOc3ccc(CC(=O)N4CCC4)c(F)c3)CC2)nc1` [Example 36, 1-(azetidin-1-yl)-2-(4-(2-((1S,2S)-2-(1-(5-ethylpyrimidin-2-yl)piperidin-4-yl)cyclopropyl)ethoxy)-2-fluorophenyl)ethanone], with 5.5 nM; and `CCc1cnc(N2CCC([C@@H]3C[C@H]3CCOc3ccc(CC(=O)N(C)C)c(F)c3)CC2)nc1` [Example 46, 2-(4-(2-((1S,2S)-2-(1-(5-ethylpyrimidin-2-yl)piperidin-4-yl)cyclopropyl)ethoxy)-2-fluorophenyl)-N,N-dimethylacetamide], with 4.4 nM. Then `CCc1cnc(N2CCC([C@H]3C[C@@H]3CCOc3ccc(CC(=O)N4CCC4)cc3F)CC2)nc1` [Example 44, 1-(azetidin-1-yl)-2-(4-(2-((1R,2R)-2-(1-(5-ethylpyrimidin-2-yl)piperidin-4-yl)cyclopropyl)ethoxy)-3-fluorophenyl)ethanone], with 2.9 nM. Turning to `CCc1cnc(N2CCC([C@H]3C[C@@H]3CCOc3cc(F)cc(F)c3CC(=O)N(C)C)CC2)nc1` [Example 117, 2-(2-(2-((1R,2R)-2-(1-(5-ethylpyrimidin-2-yl)piperidin-4-yl)cyclopropyl)ethoxy)-4,6-difluorophenyl)-N,N-dimethylacetamide], a half-maximal response (EC50) required 12 nM. Then `CCc1cnc(N2CCC([C@@H]3C[C@H]3CCOc3ccc(CC(=O)N4CCC4)cc3F)CC2)nc1` [Example 62, 1-(azetidin-1-yl)-2-(4-(2-((1S,2S)-2-(1-(5-ethylpyrimidin-2-yl)piperidin-4-yl)cyclopropyl)ethoxy)-3-fluorophenyl)ethanone], with 11 nM; and `CC1(OC(=O)N2CCC([C@@H]3C[C@H]3CCOc3ccc(CC(=O)N4CCC4)cn3)CC2)CC1` [Example 120, 1-methylcyclopropyl 4-((1S,2S)-2-(2-(5-(2-(azetidin-1-yl)-2-oxoethyl)pyridin-2-yloxy)ethyl)cyclopropyl)piperidine-1-carboxylate], with 21 nM; and `CS(=O)(=O)c1ccc(COC[C@H]2C[C@@H]2C2CCN(c3ncc(Cl)cn3)CC2)c(F)c1` [Example 4], with 1.6 nM. `CS(=O)(=O)c1ccc(OCC[C@H]2C[C@@H]2C2CCN(c3ncc(Cl)cn3)CC2)c(F)c1` [Example 30, 5-chloro-2-(4-((1R,2R)-2-(2-(2-fluoro-4-(methylsulfonyl)phenoxy)ethyl)cyclopropyl)piperidin-1-yl)pyrimidine] registered a concentration giving a half-maximal response (EC50) of 23 nM. Then `Fc1cc(-n2cnnn2)ccc1OCC[C@@H]1C[C@H]1C1CCN(c2ncc(Cl)cn2)CC1` [Example 41, 5-chloro-2-(4-((1S,2S)-2-(2-(2-fluoro-4-(1H-tetrazol-1-yl)phenoxy)ethyl)cyclopropyl)piperidin-1-yl)pyrimidine], with 5.6 nM.

In turn, `CCc1cnc(N2CCC([C@@H]3C[C@H]3CCOc3cc(F)c(CC(=O)N(C)C)c(F)c3)CC2)nc1` [Example 49, 2-(4-(2-((1S,2S)-2-(1-(5-ethylpyrimidin-2-yl)piperidin-4-yl)cyclopropyl)ethoxy)-2,6-difluorophenyl)-N,N-dimethylacetamide] came in with a concentration for a half-maximal effect (EC50) of 0.7 nM. To `COCc1cnc(N2CCC([C@H]3C[C@@H]3CCOc3cc(F)c(CC(=O)N(C)C)c(F)c3)CC2)nc1` [Example 57, 2-(2,6-difluoro-4-(2-((1R,2R)-2-(1-(5-(methoxymethyl)pyrimidin-2-yl)piperidin-4-yl)cyclopropyl)ethoxy)phenyl)-N,N-dimethylacetamide] belongs 0.63 nM; to `CCc1cnc(N2CCC([C@@H]3C[C@H]3CCOc3ccc(CC(=O)N4CCC4)cn3)CC2)nc1` [Example 116, 1-(azetidin-1-yl)-2-(6-(2-((1S,2S)-2-(1-(5-ethylpyrimidin-2-yl)piperidin-4-yl)cyclopropyl)ethoxy)pyridin-3-yl)ethanone], 9.7 nM; to `CCc1cnc(N2CCC([C@H]3C[C@@H]3CCOc3ccc(CC(=O)N(C)C)c(F)c3)CC2)nc1` [Example 47, 2-(4-(2-((1R,2R)-2-(1-(5-ethylpyrimidin-2-yl)piperidin-4-yl)cyclopropyl)ethoxy)-2-fluorophenyl)-N,N-dimethylacetamide], 2.9 nM. To `COCc1noc(N2CCC([C@H]3C[C@@H]3CCOc3ccc(CC(=O)N(C)C)c(F)c3)CC2)n1` [Example 93, 2-(2-fluoro-4-(2-((1R,2R)-2-(1-(3-(methoxymethyl)-1,2,4-oxadiazol-5-yl)piperidin-4-yl)cyclopropyl)ethoxy)phenyl)-N,N-dimethylacetamide] belongs 18 nM. To `CC1(OC(=O)N2CCC([C@@H]3C[C@H]3CCOc3ccc(-n4cnnn4)cc3F)CC2)CC1` [Example 96, 1-methylcyclopropyl 4-((1S,2S)-2-(2-(2-fluoro-4-(1H-tetrazol-1-yl)phenoxy)ethyl)cyclopropyl)piperidine-1-carboxylate] belongs 8.2 nM.

Take `CN(C)C(=O)Cc1c(F)cc(OCC[C@@H]2C[C@H]2C2CCN(C(=O)OC3(C)CC3)CC2)cc1F` [Example 102, 1-methylcyclopropyl 4-((1S,2S)-2-(2-(4-(2-(dimethylamino)-2-oxoethyl)-3,5-difluorophenoxy)ethyl)cyclopropyl)piperidine-1-carboxylate]: a half-maximal effect (EC50) was put at 2.1 nM.

One may read the EC50 as the concentration giving half of the maximal effect. A lower EC50 goes with higher potency in that assay.

(Values after patent US20150274664A1 (MERCK SHARP & DOHME CORP., priority 2012, published 2015).)
